Measurements from patent US9050341B2, “Methods of treating drug resistant and other tumors by administering 6,7-dialkoxy quinazoline derivatives” (NATCO PHARMA LIMITED, priority 2009, dated 2015).

Experiments:
Test in all cases: KinomeScan kinase profiling
Assay type in all cases: binding
SRPK3 = biological target: T1, SRPK3 (Homo sapiens, UniProt Q9UPE1)
T1 construct: host or cells: E. coli host derived from the BL21 strain, T7 phage lysate

TAOK1 = biological target: T2, TAOK1 (Homo sapiens, UniProt Q7L7X3)
T2 construct: host or cells: E. coli host derived from the BL21 strain, T7 phage lysate
T2 sequence (Q7L7X3 whole entry): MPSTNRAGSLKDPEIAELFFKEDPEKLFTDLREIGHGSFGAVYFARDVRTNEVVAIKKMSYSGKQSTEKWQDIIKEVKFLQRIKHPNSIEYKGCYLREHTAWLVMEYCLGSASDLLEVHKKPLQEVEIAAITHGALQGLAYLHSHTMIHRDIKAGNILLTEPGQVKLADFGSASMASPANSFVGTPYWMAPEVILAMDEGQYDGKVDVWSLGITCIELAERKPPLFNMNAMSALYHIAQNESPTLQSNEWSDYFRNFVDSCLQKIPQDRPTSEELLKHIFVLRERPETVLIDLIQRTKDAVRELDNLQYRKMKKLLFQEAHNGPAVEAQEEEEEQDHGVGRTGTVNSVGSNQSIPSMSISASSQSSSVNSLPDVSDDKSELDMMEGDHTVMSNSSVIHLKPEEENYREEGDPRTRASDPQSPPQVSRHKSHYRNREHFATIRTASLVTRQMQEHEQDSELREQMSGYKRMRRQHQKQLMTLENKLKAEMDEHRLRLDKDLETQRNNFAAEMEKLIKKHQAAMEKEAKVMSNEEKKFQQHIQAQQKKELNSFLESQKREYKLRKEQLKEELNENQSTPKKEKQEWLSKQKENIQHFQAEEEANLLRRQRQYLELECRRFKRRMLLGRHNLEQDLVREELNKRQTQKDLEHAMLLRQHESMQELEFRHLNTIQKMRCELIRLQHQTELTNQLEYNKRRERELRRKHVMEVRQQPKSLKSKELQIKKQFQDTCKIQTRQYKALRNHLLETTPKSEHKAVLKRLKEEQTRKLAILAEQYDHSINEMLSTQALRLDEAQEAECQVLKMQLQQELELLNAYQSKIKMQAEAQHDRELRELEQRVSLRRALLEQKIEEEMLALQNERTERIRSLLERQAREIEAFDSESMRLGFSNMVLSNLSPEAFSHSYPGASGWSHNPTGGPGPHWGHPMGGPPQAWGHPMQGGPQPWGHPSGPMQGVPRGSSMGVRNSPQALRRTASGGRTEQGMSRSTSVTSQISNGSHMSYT

MARK3 = biological target: T3, MARK3 (Homo sapiens, UniProt P27448)
T3 construct: host or cells: E. coli derived from BL21, infected with T7 phage

TGFBR1 = biological target: T4, TGFBR1 (Homo sapiens, UniProt P36897)
T4 construct: host or cells: E. coli host derived from the BL21 strain, T7 phage lysate

ACVR1B = biological target: T5, ACVR1B (Homo sapiens, UniProt P36896)
T5 construct: host or cells: E. coli host derived from BL21 (T7 phage lysate)

CDC2L1 = biological target: T6, CDC2L1 (Homo sapiens, UniProt P21127)
T6 construct: host or cells: T7 phage in E. coli (BL21-derived)
T6 sequence (P21127 whole entry): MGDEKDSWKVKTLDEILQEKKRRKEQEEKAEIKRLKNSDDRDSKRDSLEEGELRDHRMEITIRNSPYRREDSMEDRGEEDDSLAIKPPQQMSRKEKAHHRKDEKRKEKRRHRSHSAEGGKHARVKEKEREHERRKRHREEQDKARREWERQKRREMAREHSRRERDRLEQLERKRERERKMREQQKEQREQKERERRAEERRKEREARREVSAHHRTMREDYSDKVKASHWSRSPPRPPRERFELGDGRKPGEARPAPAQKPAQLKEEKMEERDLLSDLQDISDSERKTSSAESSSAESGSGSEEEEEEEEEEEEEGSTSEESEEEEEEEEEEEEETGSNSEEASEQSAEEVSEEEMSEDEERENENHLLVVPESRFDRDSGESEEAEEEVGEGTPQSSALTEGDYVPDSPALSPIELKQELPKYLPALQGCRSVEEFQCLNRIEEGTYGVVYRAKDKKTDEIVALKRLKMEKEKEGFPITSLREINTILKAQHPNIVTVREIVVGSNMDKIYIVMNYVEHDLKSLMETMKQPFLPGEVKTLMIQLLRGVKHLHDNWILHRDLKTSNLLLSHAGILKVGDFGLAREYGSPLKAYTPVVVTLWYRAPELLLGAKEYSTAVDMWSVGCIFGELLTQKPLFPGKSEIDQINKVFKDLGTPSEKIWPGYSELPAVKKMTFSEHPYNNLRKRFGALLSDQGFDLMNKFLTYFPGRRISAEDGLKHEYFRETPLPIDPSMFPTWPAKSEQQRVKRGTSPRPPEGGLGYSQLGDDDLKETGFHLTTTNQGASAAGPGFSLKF

MEK6 = biological target: T7, MEK6 (Homo sapiens, UniProt P52564)
T7 construct: host or cells: E. coli derived from BL21, infected with T7 phage

[1] = biological target: T8, RPS6KA2 (Kin.Dom.-1-N-terminal) (Homo sapiens, UniProt Q15349)
T8 construct: RPS6KA2 (Kin.Dom.-1-N-terminal); host or cells: E. coli host derived from BL21, T7 phage lysate
T8 sequence (Q15349 59-318 limits assumed): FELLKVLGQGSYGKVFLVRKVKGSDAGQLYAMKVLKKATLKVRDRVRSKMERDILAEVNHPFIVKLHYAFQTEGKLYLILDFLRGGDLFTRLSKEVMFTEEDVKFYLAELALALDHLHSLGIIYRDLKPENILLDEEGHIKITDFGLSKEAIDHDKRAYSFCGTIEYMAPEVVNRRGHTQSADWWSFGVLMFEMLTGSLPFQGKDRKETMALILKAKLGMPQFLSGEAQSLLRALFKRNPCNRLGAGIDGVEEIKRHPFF

ULK2 = biological target: T9, ULK2 (Homo sapiens, UniProt Q8IYT8)
T9 construct: purchased Ambit Biosciences Corp (KinomeScan); host or cells: E. coli host derived from the BL21 strain (T7 phage lysate)
T9 sequence (Q8IYT8 whole entry): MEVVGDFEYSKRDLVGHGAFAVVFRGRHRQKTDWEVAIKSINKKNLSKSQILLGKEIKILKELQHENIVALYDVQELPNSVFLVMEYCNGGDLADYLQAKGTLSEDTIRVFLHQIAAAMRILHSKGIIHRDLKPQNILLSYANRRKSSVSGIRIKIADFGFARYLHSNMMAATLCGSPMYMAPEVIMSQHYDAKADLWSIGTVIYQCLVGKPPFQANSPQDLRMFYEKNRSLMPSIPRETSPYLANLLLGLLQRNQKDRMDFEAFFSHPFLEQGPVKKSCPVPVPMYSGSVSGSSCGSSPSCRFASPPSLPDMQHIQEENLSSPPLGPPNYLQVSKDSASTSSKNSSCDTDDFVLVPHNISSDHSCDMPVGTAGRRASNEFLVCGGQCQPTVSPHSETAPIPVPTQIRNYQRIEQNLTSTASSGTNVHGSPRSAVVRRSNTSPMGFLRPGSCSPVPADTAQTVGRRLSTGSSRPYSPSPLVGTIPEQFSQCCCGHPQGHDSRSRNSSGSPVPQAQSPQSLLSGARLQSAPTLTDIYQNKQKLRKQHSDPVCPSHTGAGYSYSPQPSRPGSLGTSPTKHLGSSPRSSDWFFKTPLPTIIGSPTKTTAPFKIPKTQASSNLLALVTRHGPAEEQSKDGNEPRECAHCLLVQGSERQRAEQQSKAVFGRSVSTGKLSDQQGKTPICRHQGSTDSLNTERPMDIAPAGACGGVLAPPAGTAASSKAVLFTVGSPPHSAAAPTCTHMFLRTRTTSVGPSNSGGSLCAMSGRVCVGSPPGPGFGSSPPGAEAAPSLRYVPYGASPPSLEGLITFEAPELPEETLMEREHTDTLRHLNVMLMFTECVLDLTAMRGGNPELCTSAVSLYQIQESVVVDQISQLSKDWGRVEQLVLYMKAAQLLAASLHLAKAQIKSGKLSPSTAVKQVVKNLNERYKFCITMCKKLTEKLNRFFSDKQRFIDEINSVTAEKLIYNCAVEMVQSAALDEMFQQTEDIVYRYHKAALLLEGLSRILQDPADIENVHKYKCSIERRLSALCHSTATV

IKK-beta = biological target: T10, IKK-beta (Homo sapiens, UniProt O14920)
T10 construct: host or cells: T7 phage in E. coli host derived from BL21

DCAMKL1 = biological target: T11, DCAMKL1 (Homo sapiens, UniProt O15075)
T11 construct: purchased Ambit Biosciences Corp (KinomeScan); host or cells: T7 phage in E. coli host derived from BL21
T11 sequence (O15075 whole entry): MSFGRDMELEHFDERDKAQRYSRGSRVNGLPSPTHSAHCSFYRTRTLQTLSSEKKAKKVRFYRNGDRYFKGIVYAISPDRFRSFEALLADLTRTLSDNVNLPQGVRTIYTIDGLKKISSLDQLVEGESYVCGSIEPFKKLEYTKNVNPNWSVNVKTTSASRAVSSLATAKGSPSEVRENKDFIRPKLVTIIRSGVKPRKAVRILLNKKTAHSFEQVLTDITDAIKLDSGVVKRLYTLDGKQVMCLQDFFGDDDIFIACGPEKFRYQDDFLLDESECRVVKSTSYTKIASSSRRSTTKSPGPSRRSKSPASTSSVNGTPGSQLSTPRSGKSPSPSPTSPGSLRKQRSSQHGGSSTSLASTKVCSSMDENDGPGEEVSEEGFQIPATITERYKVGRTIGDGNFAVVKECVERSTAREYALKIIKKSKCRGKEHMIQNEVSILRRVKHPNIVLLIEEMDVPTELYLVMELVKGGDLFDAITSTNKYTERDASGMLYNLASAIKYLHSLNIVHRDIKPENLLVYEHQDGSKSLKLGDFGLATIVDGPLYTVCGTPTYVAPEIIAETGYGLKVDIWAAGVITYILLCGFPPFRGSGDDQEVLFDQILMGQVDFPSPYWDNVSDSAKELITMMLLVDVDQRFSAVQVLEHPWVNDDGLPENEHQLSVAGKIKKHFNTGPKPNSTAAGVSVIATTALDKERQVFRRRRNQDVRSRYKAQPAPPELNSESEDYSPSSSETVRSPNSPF

[2] = biological target: T12, RPS6KA3 (Kin.Dom.-1-N-terminal) (Homo sapiens, UniProt P51812)
T12 construct: RPS6KA3 (Kin.Dom.-1-N-terminal); host or cells: E. coli host derived from BL21, T7 phage lysate

ABL1 (F317I) = biological target: T13, ABL1 (F317I) (Homo sapiens, UniProt P00519, F317I)
T13 construct: host or cells: E. coli host derived from BL21 (T7 phage lysate)

MARK1 = biological target: T14, MARK1 (Homo sapiens, UniProt Q9P0L2)
T14 construct: host or cells: E. coli derived from BL21, infected with T7 phage

BMPR1A = biological target: T15, BMPR1A (Homo sapiens, UniProt P36894)
T15 construct: purchased Ambit Biosciences Corp (KinomeScan); host or cells: E. coli host derived from the BL21 strain, T7 phage

TLK2 = biological target: T16, TLK2 (Homo sapiens, UniProt Q86UE8)
T16 construct: purchased Ambit Biosciences Corp (KinomeScan); host or cells: E. coli host derived from the BL21 strain (T7 phage lysate)
T16 sequence (Q86UE8 whole entry): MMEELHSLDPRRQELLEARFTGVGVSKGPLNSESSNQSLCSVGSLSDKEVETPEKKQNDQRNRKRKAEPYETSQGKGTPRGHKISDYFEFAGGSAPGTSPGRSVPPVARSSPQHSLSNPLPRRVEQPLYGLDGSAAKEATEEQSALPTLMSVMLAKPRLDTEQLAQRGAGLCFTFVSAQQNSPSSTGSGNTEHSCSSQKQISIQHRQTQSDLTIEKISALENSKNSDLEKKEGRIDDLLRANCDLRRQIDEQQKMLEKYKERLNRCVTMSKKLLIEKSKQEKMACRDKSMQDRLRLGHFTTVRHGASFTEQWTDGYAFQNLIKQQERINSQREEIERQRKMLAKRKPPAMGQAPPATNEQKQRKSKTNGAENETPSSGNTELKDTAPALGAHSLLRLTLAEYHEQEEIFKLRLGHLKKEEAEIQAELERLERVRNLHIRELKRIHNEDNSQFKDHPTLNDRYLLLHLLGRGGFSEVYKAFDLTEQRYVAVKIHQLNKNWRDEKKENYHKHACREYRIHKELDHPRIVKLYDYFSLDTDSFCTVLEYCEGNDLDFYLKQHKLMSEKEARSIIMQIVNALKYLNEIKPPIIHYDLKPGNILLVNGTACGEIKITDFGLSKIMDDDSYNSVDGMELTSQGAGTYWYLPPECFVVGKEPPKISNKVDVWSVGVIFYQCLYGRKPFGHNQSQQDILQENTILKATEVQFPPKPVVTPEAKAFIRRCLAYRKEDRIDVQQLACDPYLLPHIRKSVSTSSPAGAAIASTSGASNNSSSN

SRPK1 = biological target: T17, SRPK1 (Homo sapiens, UniProt Q96SB4)
T17 construct: host or cells: E. coli host derived from the BL21 strain, T7 phage lysate

HPK1 = biological target: T18, HPK1 (Homo sapiens, UniProt Q92918)
T18 construct: host or cells: E. coli host derived from BL21, infected with T7 phage

EPHA2 = biological target: T19, EPHA2 (Homo sapiens, UniProt P29317)
T19 construct: host or cells: E. coli host derived from BL21, T7 phage lysate

EPHA1 = biological target: T20, EPHA1 (Homo sapiens, UniProt P21709)
T20 construct: host or cells: E. coli host derived from BL21, T7 phage lysate

PIP5K2B = biological target: T21, PIP5K2B (Homo sapiens, UniProt P78356)
T21 construct: purchased Ambit Biosciences Corp (KinomeScan); host or cells: E. coli host derived from BL21, infected with T7 phage
T21 sequence (P78356 whole entry): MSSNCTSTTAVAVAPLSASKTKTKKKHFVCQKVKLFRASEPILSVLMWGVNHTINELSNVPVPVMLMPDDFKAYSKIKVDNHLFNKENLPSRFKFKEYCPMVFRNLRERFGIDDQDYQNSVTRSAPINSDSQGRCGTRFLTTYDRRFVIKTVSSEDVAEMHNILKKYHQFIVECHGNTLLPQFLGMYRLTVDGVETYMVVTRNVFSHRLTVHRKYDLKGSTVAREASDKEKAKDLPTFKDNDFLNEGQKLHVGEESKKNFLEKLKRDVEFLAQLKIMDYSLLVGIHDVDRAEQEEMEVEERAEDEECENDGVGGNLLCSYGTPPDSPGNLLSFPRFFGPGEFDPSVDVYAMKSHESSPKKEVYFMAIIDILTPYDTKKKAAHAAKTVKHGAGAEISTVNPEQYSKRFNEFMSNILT

STK33 = biological target: T22, STK33 (Homo sapiens, UniProt Q9BYT3)
T22 construct: host or cells: E. coli host derived from the BL21 strain, T7 phage lysate

FGFR2 = biological target: T23, FGFR2 (Homo sapiens, UniProt P21802)
T23 construct: host or cells: E. coli host derived from BL21, infected with T7 phage

YANK2 = biological target: T24, YANK2 (Homo sapiens, UniProt Q9NY57)
T24 construct: purchased Ambit Biosciences Corp (KinomeScan); host or cells: E. coli host derived from the BL21 strain (T7 phage lysate)

[3] = biological target: T25, RPS6KA1 (Kin.Dom.-2-C-terminal) (Homo sapiens, UniProt Q15418)
T25 construct: RPS6KA1 (Kin.Dom.-2-C-terminal); host or cells: E. coli host derived from BL21, T7 phage lysate

MAPKAPK2 = biological target: T26, MAPKAPK2 (Homo sapiens, UniProt P49137)
T26 construct: host or cells: E. coli derived from BL21, infected with T7 phage

C#Cc1cccc(Nc2ncnc3cc(OC)c(OCCCN4CCOCC4)cc23)c1 [NRC-2694, N-(3-ethylnylphenyl)-7-methoxy-6-[3-(4-morpholinyl)propoxy]-4-quinazolinamine]
% Ctrl @ 10000 nM (SRPK3): 38 % Ctrl | % Ctrl @ 10000 nM (TAOK1): 54 % Ctrl | % Ctrl @ 10000 nM (MARK3): 62 % Ctrl | % Ctrl @ 10000 nM (TGFBR1): 83 % Ctrl | % Ctrl @ 10000 nM (ACVR1B): 63 % Ctrl | % Ctrl @ 10000 nM (CDC2L1): 42 % Ctrl | % Ctrl @ 10000 nM (MEK6): 75 % Ctrl | % Ctrl @ 10000 nM [1]: 70 % Ctrl | % Ctrl @ 10000 nM (ULK2): 39 % Ctrl | % Ctrl @ 10000 nM (IKK-beta): 51 % Ctrl | % Ctrl @ 10000 nM (DCAMKL1): 92 % Ctrl | % Ctrl @ 10000 nM [2]: 94 % Ctrl | % Ctrl @ 10000 nM (ABL1 (F317I)): 48 % Ctrl | % Ctrl @ 10000 nM (MARK1): 56 % Ctrl | % Ctrl @ 10000 nM (BMPR1A): 100 % Ctrl | % Ctrl @ 10000 nM (TLK2): 82 % Ctrl | % Ctrl @ 10000 nM (SRPK1): 40 % Ctrl | % Ctrl @ 10000 nM (HPK1): 47 % Ctrl | % Ctrl @ 10000 nM (EPHA2): 100 % Ctrl | % Ctrl @ 10000 nM (EPHA1): 55 % Ctrl | % Ctrl @ 10000 nM (PIP5K2B): 49 % Ctrl | % Ctrl @ 10000 nM (STK33): 43 % Ctrl | % Ctrl @ 10000 nM (FGFR2): 100 % Ctrl | % Ctrl @ 10000 nM (YANK2): 68 % Ctrl | % Ctrl @ 10000 nM [3]: 49 % Ctrl | % Ctrl @ 10000 nM (MAPKAPK2): 90 % Ctrl
